Series [1] addresses Top1 in CL187 cells (Homo sapiens, UniProt P11387). Briefly: Intracellular Top1 enzyme activity assay. The format is cell-based. More on the design: endogenous in cells; host or cells: CL187 cells (nuclear, mitochondrial and cytoplasmic extracts). The conditions noted are these: CL187 cells treated 6 h; CPT at 50 μM. The method, then:
(§1) CL187 cells were treated with different concentrations of drugs for 6 h. The supernatant was discarded, and the cells were collected. The extracts of cytoplasm, mitochondria, and nucleus were obtained by the same method as described in Section 2.4.7. The protein concentration of each extract was detected by BCA kit. Enzyme activity reaction was carried out by using 125 ng super helical DNA (pHOT-1) and cell extract. The protein concentration of the extract was guaranteed to be the same in each group. The mixture solution of the pHOT-1 and the cell extract was added into the reaction buffer and incubated for 30 min at 37 °C. The reaction was terminated with loading buffer. The agarose gel electrophoresis was performed, and the images were collected.

The subject of series [2] is Top1 in CL187 cells. Briefly: Intracellular Top1 enzyme activity assay. Conditions: CL187 cells treated 6 h. The format is cell-based, Human. The method, then:
as §1

In another series the test system is siRNA-Top1 CL187 cells. Briefly: Cell viability of Top1-silenced cells. Type of series: cell-based, Human. The conditions noted are these: siRNA-Top1 CL187; CPT 0.5 μM, FM 25 μM. The method, then:
(§2) PTE or RE were dissolved in DMSO and diluted with culture medium to 1–100 μM. The final concentration of DMSO was less than 0.1%, and 0.1% DMSO as negative control. […] Exponentially growing cells were seeded in 96-well plates (5 × 10^3 cells/well) for 12 h. Various drugs were added separately and incubated for 24, 48, and 72 h. Cell viability was determined by CCK-8 (Beyotime Biotechnology, Shanghai, China) assay.

The next series deals with Tdp1-over CL187 cells. Put plainly: Cell viability of Tdp1-overexpressing cells. Type of series: cell-based, Human. Conditions: Tdp1-over CL187; CPT 0.5 μM, FM 25 μM. The protocol: CL187 cells were cultured on 6-cm dishes at 37 °C for 24 h. The plasmid (2.5 μg) was diluted with 125 μL serum-free medium Opti-MEM, mixed gently, and incubated at room temperature for 5 min. Lipo 3000 (Invitrogen, Waltham, MA, USA) were diluted with 125 μL serum-free medium Opti-MEM, mixed and incubated for 5 min. Mixed the plasmid and Lipo 3000, incubated at room temperature for 20 min, the mixture was added to CL187 cells, the Tdp1 overexpressed plasmid were transfected into CL187 cells.
PTE or RE were dissolved in DMSO and diluted with culture medium to 1–100 μM. The final concentration of DMSO was less than 0.1%, and 0.1% DMSO as negative control. CPT, as Top1 inhibitor, was diluted to 0.5 μM [36, 37], and FM, as Tdp1 inhibitor was diluted to 25 μM [38]. Exponentially growing cells were seeded in 96-well plates (5 × 10^3 cells/well) for 12 h. […] Cell viability was determined by CCK-8 (Beyotime Biotechnology, Shanghai, China) assay. Cell viability and inhibition rate were calculated with the following formulae:Cell viability (%) = [OD450 (sample)/OD450 (control)] × 100(1) Inhibition rate (%) = […] − cell viability (%)(2)
The drug concentration required for inhibiting cell proliferation by 50% (IC50) was determined by interpolation from dose-response curves.

A further series has as its system siRNA-Tdp1 CL187 cells. Put plainly: Cell viability of Tdp1-silenced cells. Type of series: cell-based, Human. The conditions noted are these: siRNA-Tdp1 CL187, CPT 0.5 μM; for sensitivity / efficacy of positive controls: FM 25 μM. The protocol:
as §2

The next series concerns the target T1, Top1 (Homo sapiens, UniProt P11387).
T1 construct: purchased TopoGEN, Buena Vista, CO, USA
T1 sequence (P11387 1-765): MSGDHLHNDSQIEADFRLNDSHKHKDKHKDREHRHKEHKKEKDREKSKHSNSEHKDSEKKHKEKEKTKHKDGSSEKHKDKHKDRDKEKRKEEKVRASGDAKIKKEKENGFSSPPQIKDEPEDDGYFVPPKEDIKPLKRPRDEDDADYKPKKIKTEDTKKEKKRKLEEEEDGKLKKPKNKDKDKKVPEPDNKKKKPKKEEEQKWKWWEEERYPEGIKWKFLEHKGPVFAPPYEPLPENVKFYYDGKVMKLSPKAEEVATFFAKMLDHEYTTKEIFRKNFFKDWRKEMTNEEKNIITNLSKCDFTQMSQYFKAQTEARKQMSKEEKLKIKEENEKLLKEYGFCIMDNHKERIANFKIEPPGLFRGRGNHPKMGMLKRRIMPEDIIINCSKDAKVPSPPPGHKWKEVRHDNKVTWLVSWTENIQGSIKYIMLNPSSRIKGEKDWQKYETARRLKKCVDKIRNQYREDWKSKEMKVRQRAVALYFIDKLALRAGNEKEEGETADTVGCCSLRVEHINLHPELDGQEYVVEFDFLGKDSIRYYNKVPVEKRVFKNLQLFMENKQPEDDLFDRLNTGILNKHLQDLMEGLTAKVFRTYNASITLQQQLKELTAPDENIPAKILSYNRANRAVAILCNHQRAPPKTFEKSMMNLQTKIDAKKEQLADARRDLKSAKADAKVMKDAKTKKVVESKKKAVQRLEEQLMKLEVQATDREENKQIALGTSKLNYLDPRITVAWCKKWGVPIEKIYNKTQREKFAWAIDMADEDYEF
Put plainly: Direct Top1 enzyme activity (DNA relaxation) assay. Type of series: biochemical. Conditions: gel electrophoresis. The method, then:
Different concentrations of the drug solution were prepared. The solvent was used as negative control group, and CPT (50 μM) was used as the positive control group. Each sample included 2 units of Top1 (TopoGEN, Buena Vista, CO, USA) and 250 ng super helical DNA (pHOT-1, TopoGEN, Buena Vista, CO, USA). The samples were incubated for 30 min at 37 °C, and then the reaction was stopped with SDS. After digestion with proteinase K (50 μg/mL, 60 min at 37 °C), samples were separated through electrophoresis (1% agarose gel). The electrophoresis was conducted at 180 V constant pressure for 20 min. The gel was immersed in the dye without EB for 30 min, and the images were collected by gel imaging system (Tanon-1600B, Shanghai, China).

Series [3] deals with liver, kidney, lung, and paracancerous colon tissues. Put plainly: HE staining of organs of orthotopic xenograft mice. Type of series: in vivo. The conditions noted are these: orthotopic xenograft nude mice. The protocol: (§3) The mice were anaesthetized with 10% chloral hydrate and fixed on the operating table. After the abdomen of the mice was disinfected with iodine, a small section of the large intestine was squeezed out of the surgical opening. The 0.1 mL (per mouse) CL187 cell suspension (1 × 10^7 /mL) was inoculated into the colon wall of nude mice. After the inoculation, the large intestine was placed into the mouse abdominal cavity. After the wound was sutured, the mice were put into cages until they naturally woke up. After 10 days of inoculation, the animals were randomly divided into 4 groups (6 mice per group). Vector control group was intraperitoneally injected with 5% DMSO and 95% saline containing 30% HP-β-CD (i.p.). The drug dosage was designed according to the results of the previous pharmacokinetic experiment. Experimental Group 1 was intraperitoneal injected (i.p.) with PTE 100 mg/kg, and experiment Group 2 was intragastric administrated (i.g.) with PTE 500 mg/kg, once a day. The bioavailability of PTE was the same in the animals in the above regimens. Positive control group was injected with irinotecan, 20 mg/kg, twice a week. During the experiment, the changes of body weight of nude mice were recorded. After 21 days, the nude mice were sacrificed, the tumor blocks were removed surgically, weighed, and recorded. Tumor and organ tissues were paraffin-embedded and sectioned into 4 mm after being fixed in 4% of paraformaldehyde solution for 24 h. The sections were deparaffinized and rehydrated before detection. For histological observation, tumor sections were stained with hematoxylin and eosin (HE), and then observed by an inverted microscopy (Olympus, Japan).

Series [4] relates to subcutaneous CL187 xenograft. Put plainly: Subcutaneous CL187 xenograft model. Type of series: in vivo, BABLc/nude mice. The protocol: CL187 cell suspension was collected at 1 × 10^6 /mL, and 0.1 mL cell was inoculated into the right inguinal region of nude mice. The tumor was no metastasis. The diameter of the transplanted tumor in nude mice was measured with a vernier caliper. After 16-day inoculation (the tumor grew to 90 mm^3), the animals were randomly divided into 7 groups (6 mice per group). The drug was administered by intraperitoneal injection. Blank control group was injected with saline. […] According to the preliminary test results. […] Positive control group was injected with irinotecan (20 mg/kg) twice a week, During the experiment, the changes of body weight of nude mice were recorded, and the anti-tumor effect of the samples was dynamically investigated by measuring tumor diameter. On Day 31 post treatment, the nude mice were sacrificed, and the tumor blocks were removed surgically, weighed, and recorded.

For series [5], the system named is orthotopic CL187 xenograft. Briefly: Orthotopic CL187 xenograft model. The format is in vivo, BABLc/nude mice. The method, then: as §3, with “recorded.” for “recorded. Tumor and organ tissues were paraffin-embedded and sectioned into 4 mm after being fixed in 4% of paraformaldehyde solution for 24 h. The sections were deparaffinized and rehydrated before detection. For histological observation, tumor sections were stained with hematoxylin and eosin (HE), and then observed by an inverted microscopy (Olympus, Japan).”
Tumor and organ tissues were paraffin-embedded and sectioned into […] after being fixed in 4% of paraformaldehyde solution for 24 h. The sections were deparaffinized and rehydrated before detection. For histological observation, tumor sections were stained with hematoxylin and eosin (HE), and then observed by an inverted microscopy (Olympus, Japan).
For immunohistochemistry analysis, the sections were treated with 3% hydrogen peroxide for 10 min to block endogenous peroxidase, and then incubated with Ki67 primary antibody for overnight at 4 °C. Subsequently, the sections were treated with secondary antibody at room temperature for 20 min. After being washed with PBS, the sections were incubated with DAB chromogenic solution for 10 min, followed by rewashing in PBS. The sections were counterstained with hematoxylin after DAB coloration. The antibody specificity was confirmed by negative control without primary antibody treatment. Immunopositive areas were observed by an inverted microscope (Olympus, Japan).

Setting [6] is: 20 mg/kg-i.p. twice a week, 21 days.

The results in this text go back to publication PMC8391236, “Effect of Pterostilbene, a Natural Derivative of Resveratrol, in the Treatment of Colorectal Cancer through Top1/Tdp1-Mediated DNA Repair Pathway” (Cancers, 2021).

A word on the inhibition: it is the drop in the measured response relative to a control, in per cent. Take `CC[C@@]1(O)C(=O)OCc2c1cc1n(c2=O)Cc2cc3ccccc3nc2-1` [CPT, camptothecin, reference compound]: the “Top1 enzyme activity in the nucleus” value on Top1 in CL187 cells [1] is recorded as “significantly inhibited”. For the same compound, the “concentration with the same inhibitory effect on intracellular Top1 enzyme activity” value with Top1 in CL187 cells [2] (cell extracts + SC DNA) is 50 µM. The “Top1 enzyme activity in mitochondria” value with Top1 in CL187 cells [2] (CPT at 50 μM) is given as “significantly inhibited”. Further, the “inhibitory effect on cell proliferation of positive controls” value in the series with siRNA-Top1 CL187 cells is listed as “hardly exhibited inhibitory effect on cell proliferation”. Besides, in the series on Tdp1-over CL187 cells, the “sensitivity / response of cells to positive controls” value is reported as “significantly reduced”. In addition, the inhibition at 0.5 µM in the series on siRNA-Tdp1 CL187 cells (Homo sapiens, read-out: cell inhibition rate) is roughly 90%. For the same compound, in the series with siRNA-Tdp1 CL187 cells, the “sensitivity / efficacy of positive controls” value is on record as “significantly increased”. For the same compound, the “inhibition of Top1 enzyme activity (SC DNA relaxation)” value at Top1 (30 min incubation, CPT at 50 uM) is “could inhibit Top1 enzyme activity”. Moreover, the “concentration exhibiting the same inhibitory effect on Top1 enzyme activity” value at Top1 (relaxation of supercoiled pHOT-1 DNA, 30 min) is 50 µM.

Take `Cl.Cl.N=C(N)c1ccc(-c2ccc(-c3ccc(C(=N)N)cc3)o2)cc1` [FM, Furamidine dihydrochloride, reference compound]: the “inhibitory effect on cell proliferation of positive controls” value with siRNA-Top1 CL187 cells is “significantly enhancing the inhibitory effect on the cells”. The “sensitivity / response of cells to positive controls” value with Tdp1-over CL187 cells was “good response”. Further, the “sensitivity / efficacy of positive controls” value in the series on siRNA-Tdp1 CL187 cells is reported as “failed to exert its efficacy”.

Turning to `CCc1c2c(nc3ccc(OC(=O)N4CCC(N5CCCCC5)CC4)cc13)-c1cc3c(c(=O)n1C2)COC(=O)[C@]3(O)CC` [CPT-11, irinotecan], in [3], the “effect on lung inflammation (HE sections)” value is reported as “could aggravate the inflammatory response”. For the same compound, the “Tumor Weight” value in series [4] (20 mg/kg i.p. twice a week, Day 31) was found to be 1.18 ± 0.12 g. The “adverse reactions during the entire treatment process” value in series [4] (subcutaneous CL187 xenograft nude mice, CPT-11 20 mg/kg, PTE 25-200 mg/kg i.p.) is “severe diarrhea, lassitude, and other adverse reactions”. For the same compound, in series [5] (20 mg/kg-i.p.), the “degree of tumor necrosis (HE)” value was “+++ (+++ denotes the ratio between 1/2 and 3/4)”. In [5] (setting [6]), the “Tumor Inhibitory Rate” value was 62.91 ± 11.78% and the “Tumor Weight” value amounted to 0.81 ± 0.20 g. For the same compound, in [5] (20 mg/kg-i.p., vector control 46.53±3.86%), the “Ki67 labeling rate in tumor tissue” value was found to be 22.46 ± 6.78%.
